“And” between values parts separate entries of the source, which are not always exact repeats. Identical values can stand only once. Like-named read-outs stand apart in the source and are kept apart here.
What was measured:
[1] = patient with papillary carcinoma of the thyroid; cited from earlier work
[2] = daily times 5 schedule; cited from earlier work
SARS-CoV-2 = assay: microbe, parasite or virus in culture; format: cell-based
in vitro = settings: monkey
OMP decarboxylase = settings: for PYR concentration: 1 μM; for OMP concentration / Orotate concentration / UMP concentration: PYR 1 μM
advanced lung cancer = settings: weekly rapid iv injection, previously treated patients with advanced lung cancer; cited from earlier work
HRV1A strain 2060 = assay: Rhinovirus antiviral assay, inhibition of virus-induced cell killing (XTT) in H1-HeLa cells; format: cell-based; settings: Enterovirus
[3] = remdesivir dose response, brequinar 0.000 μM
[4] = remdesivir dose response, brequinar 0.078 μM
[5] = remdesivir dose response, brequinar 0.156 μM
[6] = remdesivir dose response, brequinar 0.313 μM
[7] = remdesivir dose response, brequinar 1.250 μM

For Cc1c(-c2ccc(-c3ccccc3F)cc2)nc2ccc(F)cc2c1C(=O)O [Brequinar sodium], the tumor response [1] is listed as “One mixed response”, the maximum tolerated dose [2] is listed as 300 mg/m^2 and the “recommended phase II dose” value [2] is listed as 250 mg/m^2.

For CCC(CC)COC(=O)[C@H](C)N[P@](=O)(OC[C@H]1O[C@@](C#N)(c2ccc3c(N)ncnn23)[C@H](O)[C@@H]1O)Oc1ccccc1 [remdesivir], the “E(Max)” value (SARS-CoV-2) was 100, the “E(Max) of remdesivir” value (SARS-CoV-2) was 95.33 and 96.37 and 95.10 and the “Max Data” value (SARS-CoV-2) was 104.7% and 106.8% and 101.9%. For the same compound, the “Min Data” value (SARS-CoV-2) was 75.9% and 78.9% and 69.5%, the “increase in activity of remdesivir” value (SARS-CoV-2) was > 6.8 fold and the EC90 (SARS-CoV-2; Severe acute respiratory syndrome coronavirus 2, Vero C1008) was 1.4 µM. For the same compound, the EC50 (SARS-CoV-2; Severe acute respiratory syndrome coronavirus 2, Vero C1008, brequinar 0.000 μM; read-out: EC50 of remdesivir) was 0.801 µM, the IC50 (SARS-CoV-2; Severe acute respiratory syndrome coronavirus 2, Vero C1008, brequinar 0.000 μM; read-out: IC50 of remdesivir) was 0.823 µM and the EC50 (SARS-CoV-2; Severe acute respiratory syndrome coronavirus 2, Vero C1008, brequinar 0.078 μM; read-out: EC50 of remdesivir) was 0.277 µM. It also gave an IC50 (SARS-CoV-2; Severe acute respiratory syndrome coronavirus 2, Vero C1008, brequinar 0.078 μM; read-out: IC50 of remdesivir) of 0.292 µM, an EC50 (SARS-CoV-2; Severe acute respiratory syndrome coronavirus 2, Vero C1008, brequinar 0.156 μM; read-out: EC50 of remdesivir) of 0.186 µM and an IC50 (SARS-CoV-2; Severe acute respiratory syndrome coronavirus 2, Vero C1008, brequinar 0.156 μM; read-out: IC50 of remdesivir) of 0.102 µM. For the same compound, the EC50 (SARS-CoV-2; Severe acute respiratory syndrome coronavirus 2, Vero C1008, brequinar 0.313 μM; extrapolated value; read-out: EC50 of remdesivir) was 0.003 µM, the IC50 (SARS-CoV-2; Severe acute respiratory syndrome coronavirus 2, Vero C1008, brequinar 0.313 μM; extrapolated value; read-out: IC50 of remdesivir) was 0.003 µM and the EC50 (SARS-CoV-2; Severe acute respiratory syndrome coronavirus 2, Vero C1008, brequinar 1.250 μM; read-out: EC50 of remdesivir) was < 0.0195 µM. For the same compound, the IC50 (SARS-CoV-2; Severe acute respiratory syndrome coronavirus 2, Vero C1008, brequinar 1.250 μM; read-out: IC50 of remdesivir) was < 0.0195 µM, the EC50 (SARS-CoV-2; Severe acute respiratory syndrome coronavirus 2, Vero C1008, read-out: EC50 of remdesivir) was < 0.0195 µM and the IC50 (SARS-CoV-2; Severe acute respiratory syndrome coronavirus 2, Vero C1008, read-out: IC50 of remdesivir) was < 0.0195 µM. The IC50 (SARS-CoV-2; Severe acute respiratory syndrome coronavirus 2, Vero C1008, read-out: remdesivir concentration to suppress viral replication to 50%) was 0.1 µM, the EC50 (SARS-CoV-2; Severe acute respiratory syndrome coronavirus 2, Vero C1008; read-out: EC50: Concentration inhibiting 50% of the maximum CPE-protection effect of the compound (Emax)) was 0.82 µM and the IC50 (SARS-CoV-2; Severe acute respiratory syndrome coronavirus 2, Vero C1008; read-out: IC50: Concentration inhibiting 50% of the virus-induced CPE compared to the no infection control) was 0.82 µM. For the same compound, the “SI50: Selective Index 50 = CC50/IC50” value (SARS-CoV-2; Vero E6) was >61, the “E(Max) of remdesivir” value (SARS-CoV-2; brequinar 0.000 μM) was 92.02 and the “E(Max) of remdesivir” value (SARS-CoV-2; brequinar 0.078 μM) was 97.37. The “E(Max) of remdesivir” value (SARS-CoV-2; brequinar 0.156 μM) was 122.66, the “E(Max) of remdesivir” value (SARS-CoV-2; brequinar 0.313 μM) was 97.35 and the “E(Max) of remdesivir” value (SARS-CoV-2; brequinar 1.250 μM) was 100.22. For the same compound, the “Max Data” value (SARS-CoV-2; [3]) was 97.1%, the “Min Data” value (SARS-CoV-2; [3]) was −11% and the “Max Data” value (SARS-CoV-2; [4]) was 94.4%. For the same compound, the “Min Data” value (SARS-CoV-2; [4]) was −1.9%, the “Max Data” value (SARS-CoV-2; [5]) was 102.6% and the “Min Data” value (SARS-CoV-2; [5]) was 22.1%. The “Max Data” value (SARS-CoV-2; [6]) was 103.8%, the “Min Data” value (SARS-CoV-2; [6]) was 55.4% and the “Max Data” value (SARS-CoV-2; [7]) was 105.1%. The “Min Data” value (SARS-CoV-2; [7]) was 80.1%, the “cytotoxicity of the co-treatment” value (Vero E6 cells; remdesivir co-treatment with brequinar) was “No enhanced cytotoxicity was detected” and the CC50 (in vitro; CC50, Vero E6) was > 50 µM. For the same compound, the CC50 (in vitro; CC50 of remdesivir) was > 50 µM, the CC50 (in vitro; CC50 of remdesivir, brequinar 0.000 μM) was > 25 µM and the CC50 (in vitro; CC50 of remdesivir, brequinar 0.078 μM) was > 50 µM. For the same compound, the CC50 (in vitro; CC50 of remdesivir, brequinar 0.156 μM) was > 50 µM, the CC50 (in vitro; CC50 of remdesivir, brequinar 0.313 μM) was > 50 µM and the CC50 (in vitro; CC50 of remdesivir, brequinar 1.250 μM) was > 50 µM.

For NC(=O)c1[nH]nc([C@@H]2O[C@H](CO)[C@@H](O)[C@H]2O)c1O [PYR, 5-[(2S,3R,4S,5R)-3,4-dihydroxy-5-(hydroxymethyl)oxolan-2-yl]-4-hydroxy-1H-pyrazole-3-carboxamide], the PYR concentration (OMP decarboxylase; 1 h) was 0 ng/mL, the PYR concentration (OMP decarboxylase; 4 h) was 0 ng/mL and the OMP concentration (OMP decarboxylase; Cells, 1 hr) was 0 ng/mL. The Orotate concentration (OMP decarboxylase; Cells, 1 hr) was 339 ng/mL, the UMP concentration (OMP decarboxylase; Cells, 1 hr) was 552 ng/mL and the OMP concentration (OMP decarboxylase; Cells, 4 hr) was 10 ng/mL. For the same compound, the Orotate concentration (OMP decarboxylase; Cells, 4 hr) was 1170 ng/mL, the UMP concentration (OMP decarboxylase; Cells, 4 hr) was 408 ng/mL and the OMP concentration (OMP decarboxylase; Cells, 24 hr) was 11 ng/mL. For the same compound, the Orotate concentration (OMP decarboxylase; Cells, 24 hr) was 1220 ng/mL, the UMP concentration (OMP decarboxylase; Cells, 24 hr) was 326 ng/mL and the OMP concentration (OMP decarboxylase; Supernatant, 24 hr) was 43 ng/mL. The Orotate concentration (OMP decarboxylase; Supernatant, 24 hr) was 10005 ng/mL, the UMP concentration (OMP decarboxylase; Supernatant, 24 hr) was 69 ng/mL and the therapeutic value (advanced lung cancer) was “little therapeutic value as a single agent”.

Compound CCOC(=O)/C=C/[C@H](C[C@@H]1CCNC1=O)NC(=O)[C@@H](CC(=O)[C@@H](NC(=O)c1cc(C)on1)C(C)C)Cc1ccc(F)cc1 [Rupintrivir] has an EC50 (HRV1A strain 2060) of 0.0107 µM.

For NC(=O)c1ncn([C@@H]2O[C@H](CO)[C@@H](O)[C@H]2O)n1 [ribavirin], the IC50 (SARS-CoV-2; Severe acute respiratory syndrome coronavirus 2, Vero C1008, read-out: IC50: Concentration inhibiting 50% of the virus-induced CPE compared to the no infection control) was > 50 µM, the EC90 (SARS-CoV-2; Severe acute respiratory syndrome coronavirus 2, Vero C1008; Vero E6, MOI of 0.05) was > 50 µM and the CC50 (in vitro; CC50) was > 50 µM.

With CC(C)C[C@H](NC(=O)OCc1ccccc1)C(=O)N[C@@H](CC1CCNC1=O)C(O)S(=O)(=O)[O-].[Na+] (stereo partly drawn) [GC-376] the “E(Max)” value (SARS-CoV-2) was 100, the EC90 (SARS-CoV-2) was 5.73 µM and the EC50 (SARS-CoV-2; read-out: EC50: Concentration inhibiting 50% of the maximum CPE-protection effect of the compound (Emax)) was 2.04 µM. For the same compound, the IC50 (SARS-CoV-2; read-out: IC50: Concentration inhibiting 50% of the virus-induced CPE compared to the no infection control) was 2.04 µM and the CC50 (Vero E6 cells) was > 50 µM.

From patent US20210290651A1, “METHODS OF TREATING VIRAL INFECTIONS USING INHIBITORS OF NUCLEOTIDE SYNTHESIS PATHWAYS” (priority 2020, published 2021)
